Measured values published in publication PMC6277434, “Discovery of a potent HMG-CoA reductase degrader that eliminates statin-induced reductase accumulation and lowers cholesterol” (Nature Communications, 2018).

Molecular target: T1, HMGCR (Cricetulus griseus, UniProt P00347)
T1 construct: endogenous in cells; host or cells: CHO-7, CHG, SRD-13A, SRD-15
T1 sequence (P00347 1-887): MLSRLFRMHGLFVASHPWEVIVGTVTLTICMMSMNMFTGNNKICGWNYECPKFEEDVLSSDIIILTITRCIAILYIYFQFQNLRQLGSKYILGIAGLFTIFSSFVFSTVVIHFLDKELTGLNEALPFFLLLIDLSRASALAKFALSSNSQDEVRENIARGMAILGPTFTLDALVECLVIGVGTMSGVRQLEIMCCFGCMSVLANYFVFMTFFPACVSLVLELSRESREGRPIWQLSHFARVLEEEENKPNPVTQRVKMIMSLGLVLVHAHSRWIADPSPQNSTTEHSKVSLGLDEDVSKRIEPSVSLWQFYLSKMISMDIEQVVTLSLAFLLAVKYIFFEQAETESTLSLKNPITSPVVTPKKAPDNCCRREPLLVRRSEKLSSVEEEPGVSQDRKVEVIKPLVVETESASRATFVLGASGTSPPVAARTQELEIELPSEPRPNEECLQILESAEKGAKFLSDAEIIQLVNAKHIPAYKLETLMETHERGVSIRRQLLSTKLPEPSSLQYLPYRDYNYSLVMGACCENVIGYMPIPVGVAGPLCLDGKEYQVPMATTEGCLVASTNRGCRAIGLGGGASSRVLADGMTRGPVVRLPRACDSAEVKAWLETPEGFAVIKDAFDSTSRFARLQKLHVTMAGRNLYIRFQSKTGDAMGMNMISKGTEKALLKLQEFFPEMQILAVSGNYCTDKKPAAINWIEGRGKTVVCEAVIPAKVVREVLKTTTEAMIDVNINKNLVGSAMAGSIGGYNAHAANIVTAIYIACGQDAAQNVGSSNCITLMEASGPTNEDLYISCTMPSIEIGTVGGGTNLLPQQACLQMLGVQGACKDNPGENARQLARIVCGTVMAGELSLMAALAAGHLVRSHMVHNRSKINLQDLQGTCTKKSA
Assay: Immunoblotting of HMGCR protein in SRD-13A (Scap-deficient CHO-7) cells
Type: cell-based, Chinese hamster
Conditions: for HMGCR protein level, mean: SRD-13A, 16 h
Method: CHO-7 (Chinese hamster ovary cell, a clone of CHO-K1 cell line selected for growth in LPDS) and Huh7 (a human hepatocellular carcinoma cell line), SRD-13A (a Scap-deficient CHO-7 cell line) and SRD-15 (an Insig-1 and Insig-2-deficient CHO-7 cell line) were generous gifts from Russell Debose-Boyd at UT Southwestern Medical Center, USA. All cells were grown in a monolayer at 37 °C with 5% CO2. Huh7 cells were maintained in medium A supplemented with 10% FBS. CHO-7 and SRD-15 cells were maintained in medium B supplemented with 5% FBS. SRD-13A cells were maintained in medium B with 5% FBS, 5 μg ml^−1 cholesterol, 1 mM sodium mevalonate, 10 μM sodium oleate. No cell lines used in this study were found in the database of commonly misidentified cell lines that is maintained by ICLAC and NCBI Biosample. The cell lines have not been authenticated recently. No test for mycoplasma contamination was performed.
Cells were harvested and homogenized in the RIPA buffer (50 mM Tris-HCl, pH 8.0, 150 mM NaCl, 2 mM MgCl2, 1.5% NP-40, 0.1% SDS, and 0.5% sodium deoxycholate) supplemented with protease cocktail inhibitor, 10 μM MG-132, 10 μg ml^−1 leupeptin and 1 mM phenylmethylsulfonyl fluoride. The protein concentrations of lysates were determined using BCA method (Beyotime). Samples were mixed with the membrane protein solubilization buffer (62.5 mM Tris-HCl, pH 6.8, 15% SDS, 8 M urea, 10% glycerol, and 100 mM DTT) plus the 4× loading buffer (150 mM Tris-HCl, pH 6.8, 12% SDS, 30% glycerol, 6% 2-mercaptoethanol, and 0.02% bromophenol blue) and incubated for 30 min at 37 °C. Proteins were resolved by SDS-PAGE and transferred to nitrocellulose membranes (GE Healthcare). Immnoblots were blocked with 5% non-fat milk in TBS containing 0.075% Tween-20 (TBST) and probed with indicated antibodies overnight at 4 °C. After washing in TBST for five times, blots were incubated with HRP-conjugated secondary antibodies for 2 h at room temperature. Immunoreactivity was developed with Clarity Western ECL chemiluminescent substrates (170–5061, Bio-Rad). Western blot images were captured by Amersham Imager 600 (GE Healthcare), and integrated optical intensities of each band were quantified by Image-Pro Plus 6 software (Media Cybernetics). Uncropped blots are shown in Supplementary Figs. 9–13.

Structure (SMILES): CC[C@H](C)C(=O)O[C@H]1C[C@@H](C)C=C2C=C[C@H](C)[C@H](CC[C@@H]3C[C@@H](O)CC(=O)O3)[C@H]21 [Lovastatin, lovastatin]
- increase of HMGCR protein (SRD-13A cells, lovastatin 16 h): ≤ 8 fold
- HMGCR protein level, mean (lovastatin 0.001 uM): 0.9418
- HMGCR protein level, mean (lovastatin 0.003 uM): 1.178
- HMGCR protein level, mean (lovastatin 0.01 uM): 2.758
- HMGCR protein level, mean (lovastatin 0.03 uM): 4.962
- HMGCR protein level, mean (lovastatin 0.1 uM): 7.087
- HMGCR protein level, mean (lovastatin 0.3 uM): 7.139
- HMGCR protein level, mean (lovastatin 1 uM): 8.174
- HMGCR protein level, mean (lovastatin 3 uM): 8.262
- HMGCR protein level, mean (lovastatin 10 uM): 7.249
